The test system of this experiment is HCV replicon. In words: HCV replicon assay (luciferase, 5-2 Luc replicon cells). It is filed as cell-based. Conditions: Hepatitis C virus, 24 hours with compound, luciferase activity. The source says:
In one embodiment, the inhibitory activity of the compounds can be confirmed in a replicon assay that assesses the ability of a test compound to block or inhibit HCV replication in replicon cells. One example of a suitable replicon assay is the liver cell-line Huh 7-based replicon assay described in Lohmann et al., 1999, Science 285:110–113. A specific example of this replicon assay which utilizes luciferase translation is provided in the Examples Section. In one embodiment of this assay, the amount of test compound that yields a 50% reduction in translation as compared to a control cell (IC50) may be determined.
The inhibitory activity of certain exemplary compounds of the invention was confirmed using an HCV replicon assay. The HCV replicon can include such features as the HCV 5′ untranslated region including the HCV IRES, the HCV 3′ untranslated region, selected HCV genes encoding HCV polypeptides, selectable markers, and a reporter gene such as luciferase, GFP, etc. In the assay, actively dividing 5–2 Luc replicon-comprising cells (obtained from Ralf Bartenschlager; see Lohmann et al., 1999, Science 285:110–113) were seeded at a density of between about 5,000 and 7,500 cells/well onto 96 well plates (about 90 μl of cells per well) and incubated at 37° C. and 5% CO2 for 24 hours. Then, the test compound (in a volume of about 10 μl) was added to the wells at various concentrations and the cells were incubated for an additional 24 hours before luciferase assay. Briefly, the Bright-Glo reagent was diluted 1:1 with PBS and 100 μl of diluted reagent was added to each well. After 5 min of incubation at room temperature, luciferin emission was quantified with a luminometer. In this assay, the amount of test compound that yielded a 50% reduction in luciferase activity (IC50) was determined.

A value given as a limit tells only on which side of the number the result lay.

With `O=[N+]([O-])c1cccc(-c2cnc(-c3c(Cl)cccc3Cl)s2)c1` [Compound 17, 2-(2,6-dichlorophenyl)-5-(3-nitrophenyl)thiazole], the IC50 was above 10 µM.

Regarding `O=C(Nc1ccccc1-c1cc(-c2c(Cl)cccc2Cl)no1)C(Cl)Cl` [Compound 18, 2,2-Dichloro-N-[2-[3-(2,6-dichlorophenyl)-5-isoxazolyl]phenyl]Acetamide], the IC50 was above 10 µM. Under `O=C(Nc1cccc(-c2cnc(-c3c(Cl)cccc3Cl)s2)c1)C(Cl)Cl` [Compound 19, 2,2-Dichloro-N-[3-[2-(2,6-dichlorophenyl)-5-thiazolyl]phenyl]Acetamide] stands above 10 µM; under `Nc1cccc(-c2cnc(-c3c(Cl)cccc3Cl)s2)c1` [Compound 20, 2-(2,6-dichlorophenyl)-5-(3-aminophenyl)thiazole], above 10 µM; under `O=C(Nc1cccc(-c2cc(-c3c(Cl)cccc3Cl)on2)c1)C(Cl)Cl` [Compound 39, 2,2-Dichloro-N-[3-[5-(2,6-dichlorophenyl)-3-isoxazolyl]phenyl]Acetamide], below 10 µM.

For `O=C(Nc1ccc(-c2cc(-c3ccccc3Cl)no2)cc1)C(Cl)Cl` [Compound 55, 2,2-Dichloro-N-[4-[3-(2-chlorophenyl)-5-isoxazolyl]phenyl]Acetamide], the IC50 is at most 10 µM. As for `O=C(Nc1ccc(-c2cc(-c3c(F)cccc3F)no2)cc1)C(Cl)Cl` [Compound 59, 2,2-Dichloro-N-[4-[3-(2,6-difluorophenyl)-5-isoxazolyl]phenyl]Acetamide], the IC50 is at most 10 µM. Take `O=C(Nc1ccc(-c2cc(-c3c(Cl)cccc3Cl)no2)cc1)C(Cl)Cl` [Compound 60, 2,2-Dichloro-N-[4-[3-(2,6-dichlorophenyl)-5-isoxazolyl]phenyl]Acetamide]: the IC50 was above 10 µM.
